Measurements as given in PMC4490784, “Compensatory induction of MYC expression by sustained CDK9 inhibition via a BRD4-dependent mechanism” (eLife, 2015).

Columns and labels:
Experiment in all cases: KINOMEscan binding assay
[1] = biological target: T1, ABL1(Q252H)-nonphosphorylated (Homo sapiens, UniProt P00519, Q252H); conditions: read-out: % Retention on Solid Support
T1 construct: purchased DiscoveRx KINOMEscan
Method in brief: (§1)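 Panel of >400 kinases screened by active-site competition binding, compound at 1 and 10 µM.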

AKT2 = biological target: T2, AKT2 (Homo sapiens, UniProt P31751); conditions: read-out: % Retention on Solid Support
T2 construct: purchased DiscoveRx KINOMEscan
Method in brief: as §1

ANKK1 = biological target: T3, ANKK1 (Homo sapiens, UniProt Q8NFD2); conditions: read-out: % Retention on Solid Support
T3 construct: purchased DiscoveRx KINOMEscan
T3 sequence (Q8NFD2 whole entry): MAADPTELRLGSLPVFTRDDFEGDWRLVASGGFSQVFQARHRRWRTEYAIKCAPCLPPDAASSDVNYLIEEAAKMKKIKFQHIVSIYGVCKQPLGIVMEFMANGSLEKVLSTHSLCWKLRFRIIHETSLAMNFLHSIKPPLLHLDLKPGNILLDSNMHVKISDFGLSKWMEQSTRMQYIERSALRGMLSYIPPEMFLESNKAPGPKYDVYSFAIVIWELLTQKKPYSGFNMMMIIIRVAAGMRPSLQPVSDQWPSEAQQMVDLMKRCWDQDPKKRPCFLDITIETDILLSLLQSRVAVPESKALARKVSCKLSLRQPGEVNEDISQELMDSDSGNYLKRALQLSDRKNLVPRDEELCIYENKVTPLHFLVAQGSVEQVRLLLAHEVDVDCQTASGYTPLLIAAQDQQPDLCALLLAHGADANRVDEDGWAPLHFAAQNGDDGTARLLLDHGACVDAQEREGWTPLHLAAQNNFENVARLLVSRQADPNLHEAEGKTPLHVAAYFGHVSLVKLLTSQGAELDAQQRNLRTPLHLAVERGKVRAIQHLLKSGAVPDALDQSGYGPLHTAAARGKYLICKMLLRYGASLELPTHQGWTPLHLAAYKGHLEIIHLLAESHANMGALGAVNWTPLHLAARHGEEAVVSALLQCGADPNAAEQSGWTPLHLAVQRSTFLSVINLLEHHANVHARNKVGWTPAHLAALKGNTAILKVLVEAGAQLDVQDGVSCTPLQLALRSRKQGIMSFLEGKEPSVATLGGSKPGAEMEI
Method in brief: as §1

AXL = biological target: T4, AXL (Homo sapiens, UniProt P30530); conditions: read-out: % Retention on Solid Support
T4 construct: purchased DiscoveRx KINOMEscan
T4 sequence (P30530 26-894): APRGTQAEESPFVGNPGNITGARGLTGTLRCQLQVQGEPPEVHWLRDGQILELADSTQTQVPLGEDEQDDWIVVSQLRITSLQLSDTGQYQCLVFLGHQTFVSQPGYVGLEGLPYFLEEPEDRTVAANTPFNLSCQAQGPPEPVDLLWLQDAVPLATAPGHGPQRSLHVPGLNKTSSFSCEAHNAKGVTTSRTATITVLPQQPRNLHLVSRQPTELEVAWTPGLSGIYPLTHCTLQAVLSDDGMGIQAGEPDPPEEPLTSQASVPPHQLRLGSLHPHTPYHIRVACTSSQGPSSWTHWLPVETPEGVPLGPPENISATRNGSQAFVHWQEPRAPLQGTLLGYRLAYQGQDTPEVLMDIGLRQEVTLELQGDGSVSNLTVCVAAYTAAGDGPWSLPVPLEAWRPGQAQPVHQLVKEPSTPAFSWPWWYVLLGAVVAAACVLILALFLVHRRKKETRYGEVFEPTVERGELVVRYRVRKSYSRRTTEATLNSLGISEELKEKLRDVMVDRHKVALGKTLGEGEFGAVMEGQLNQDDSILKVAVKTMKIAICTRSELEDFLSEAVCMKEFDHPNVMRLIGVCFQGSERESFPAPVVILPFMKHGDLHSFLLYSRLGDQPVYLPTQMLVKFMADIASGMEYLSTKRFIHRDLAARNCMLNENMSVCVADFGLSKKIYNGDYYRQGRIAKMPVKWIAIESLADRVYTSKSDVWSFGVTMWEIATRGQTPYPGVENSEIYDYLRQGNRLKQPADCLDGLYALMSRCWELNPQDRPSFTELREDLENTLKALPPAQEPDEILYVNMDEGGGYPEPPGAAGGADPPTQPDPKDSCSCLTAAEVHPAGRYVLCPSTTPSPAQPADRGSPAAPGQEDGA
Method in brief: as §1

CAMK2G = biological target: T5, CAMK2G (Homo sapiens, UniProt Q13555); conditions: read-out: % Retention on Solid Support
T5 construct: purchased DiscoveRx KINOMEscan
T5 sequence (Q13555 whole entry): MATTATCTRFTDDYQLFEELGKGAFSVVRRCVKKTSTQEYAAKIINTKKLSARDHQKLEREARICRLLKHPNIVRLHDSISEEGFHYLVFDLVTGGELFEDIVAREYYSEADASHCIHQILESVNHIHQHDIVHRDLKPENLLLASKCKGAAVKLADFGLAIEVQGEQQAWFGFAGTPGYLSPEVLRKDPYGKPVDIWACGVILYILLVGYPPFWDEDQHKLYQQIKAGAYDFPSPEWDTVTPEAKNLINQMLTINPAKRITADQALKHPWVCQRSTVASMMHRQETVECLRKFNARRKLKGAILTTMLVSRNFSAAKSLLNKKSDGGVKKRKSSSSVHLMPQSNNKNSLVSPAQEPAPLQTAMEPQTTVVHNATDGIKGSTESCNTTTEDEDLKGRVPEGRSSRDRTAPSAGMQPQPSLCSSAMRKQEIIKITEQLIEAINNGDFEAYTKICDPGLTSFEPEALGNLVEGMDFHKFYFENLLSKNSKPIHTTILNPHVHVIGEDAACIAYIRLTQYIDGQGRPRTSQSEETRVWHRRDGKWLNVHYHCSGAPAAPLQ
Method in brief: as §1

CAMKK2 = biological target: T6, CAMKK2 (Homo sapiens, UniProt Q96RR4); conditions: read-out: % Retention on Solid Support
T6 construct: purchased DiscoveRx KINOMEscan
Method in brief: as §1

CDK2 = biological target: T7, CDK2 (Homo sapiens, UniProt P24941)
T7 construct: purchased DiscoveRx KINOMEscan
Method in brief: as §1

CDK4-cyclinD1 = biological target: T8, CDK4-cyclinD1 (Homo sapiens, UniProt P11802); conditions: 1 µM i-CDK9; read-out: % Retention on Solid Support
T8 construct: purchased DiscoveRx KINOMEscan
Method in brief: as §1

CHEK2 = biological target: T9, CHEK2 (Homo sapiens, UniProt O96017); conditions: read-out: % Retention on Solid Support
T9 construct: purchased DiscoveRx KINOMEscan
T9 sequence (O96017 whole entry): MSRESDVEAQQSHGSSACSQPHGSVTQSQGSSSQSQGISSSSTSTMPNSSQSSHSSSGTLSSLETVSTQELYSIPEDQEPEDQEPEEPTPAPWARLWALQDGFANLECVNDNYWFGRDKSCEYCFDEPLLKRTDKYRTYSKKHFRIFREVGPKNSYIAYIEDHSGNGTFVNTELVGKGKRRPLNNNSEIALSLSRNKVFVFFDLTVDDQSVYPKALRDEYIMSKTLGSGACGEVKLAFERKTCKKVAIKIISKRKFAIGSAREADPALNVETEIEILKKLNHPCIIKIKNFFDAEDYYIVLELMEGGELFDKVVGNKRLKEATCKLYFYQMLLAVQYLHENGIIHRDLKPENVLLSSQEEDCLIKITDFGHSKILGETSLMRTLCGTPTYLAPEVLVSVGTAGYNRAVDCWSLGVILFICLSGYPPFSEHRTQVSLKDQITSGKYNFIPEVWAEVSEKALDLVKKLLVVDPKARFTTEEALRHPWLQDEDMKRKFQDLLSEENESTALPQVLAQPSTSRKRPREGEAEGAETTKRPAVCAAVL
Method in brief: as §1

CSNK1A1 = biological target: T10, CSNK1A1 (Homo sapiens, UniProt P48729); conditions: 1 µM i-CDK9; read-out: % Retention on Solid Support
T10 construct: purchased DiscoveRx KINOMEscan
Method in brief: as §1

CSNK1A1L = biological target: T11, CSNK1A1L (Homo sapiens, UniProt Q8N752); conditions: read-out: % Retention on Solid Support
T11 construct: purchased DiscoveRx KINOMEscan
T11 sequence (Q8N752 whole entry): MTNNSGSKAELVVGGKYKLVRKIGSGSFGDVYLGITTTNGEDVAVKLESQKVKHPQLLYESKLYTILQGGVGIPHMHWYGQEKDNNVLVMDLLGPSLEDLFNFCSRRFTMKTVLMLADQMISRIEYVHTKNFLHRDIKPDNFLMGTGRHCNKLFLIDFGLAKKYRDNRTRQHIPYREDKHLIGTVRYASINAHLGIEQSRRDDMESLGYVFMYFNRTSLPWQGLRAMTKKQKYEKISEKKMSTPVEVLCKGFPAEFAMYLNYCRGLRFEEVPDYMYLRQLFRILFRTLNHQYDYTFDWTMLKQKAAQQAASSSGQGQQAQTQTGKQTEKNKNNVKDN
Method in brief: as §1

CSNK1G1 = biological target: T12, CSNK1G1 (Homo sapiens, UniProt Q9HCP0)
T12 construct: purchased DiscoveRx KINOMEscan
T12 sequence (Q9HCP0 whole entry): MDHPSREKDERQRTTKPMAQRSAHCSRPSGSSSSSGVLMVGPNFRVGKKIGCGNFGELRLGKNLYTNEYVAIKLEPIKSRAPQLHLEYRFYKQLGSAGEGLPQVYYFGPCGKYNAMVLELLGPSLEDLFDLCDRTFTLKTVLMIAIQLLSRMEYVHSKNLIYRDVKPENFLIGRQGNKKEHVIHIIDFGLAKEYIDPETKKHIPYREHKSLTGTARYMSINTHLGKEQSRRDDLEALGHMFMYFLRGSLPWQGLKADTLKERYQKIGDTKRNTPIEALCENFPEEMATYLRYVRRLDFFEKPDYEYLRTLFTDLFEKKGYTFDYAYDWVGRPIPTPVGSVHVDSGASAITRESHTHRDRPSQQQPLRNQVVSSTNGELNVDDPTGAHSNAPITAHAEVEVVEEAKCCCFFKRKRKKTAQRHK
Method in brief: as §1

DCAMKL1 = biological target: T13, DCAMKL1 (Homo sapiens, UniProt O15075)
T13 construct: purchased DiscoveRx KINOMEscan
Method in brief: as §1

EIF2AK1 = biological target: T14, EIF2AK1 (Homo sapiens, UniProt Q9BQI3); conditions: 1 µM i-CDK9; read-out: % Retention on Solid Support
T14 construct: purchased DiscoveRx KINOMEscan
Method in brief: as §1

FGFR3 = biological target: T15, FGFR3 (Homo sapiens, UniProt P22607); conditions: read-out: % Retention on Solid Support
T15 construct: purchased DiscoveRx KINOMEscan
Method in brief: as §1

GRK7 = biological target: T16, GRK7 (Homo sapiens, UniProt Q8WTQ7); conditions: read-out: % Retention on Solid Support
T16 construct: purchased DiscoveRx KINOMEscan
Method in brief: as §1

GSK3B = biological target: T17, GSK3B (Homo sapiens, UniProt P49841); conditions: read-out: % Retention on Solid Support
T17 construct: purchased DiscoveRx KINOMEscan
Method in brief: as §1

INSR = biological target: T18, INSR (Homo sapiens, UniProt P06213); conditions: read-out: % Retention on Solid Support
T18 construct: purchased DiscoveRx KINOMEscan
Method in brief: as §1

LATS1 = biological target: T19, LATS1 (Homo sapiens, UniProt O95835); conditions: read-out: % Retention on Solid Support
T19 construct: purchased DiscoveRx KINOMEscan
Method in brief: as §1

LIMK1 = biological target: T20, LIMK1 (Homo sapiens, UniProt P53667); conditions: read-out: % Retention on Solid Support
T20 construct: purchased DiscoveRx KINOMEscan
Method in brief: as §1

MLK3 = biological target: T21, MLK3 (Homo sapiens, UniProt Q16584)
T21 construct: purchased DiscoveRx KINOMEscan
Method in brief: as §1

MST3 = biological target: T22, MST3 (Homo sapiens, UniProt Q9Y6E0)
T22 construct: purchased DiscoveRx KINOMEscan
T22 sequence (Q9Y6E0 whole entry): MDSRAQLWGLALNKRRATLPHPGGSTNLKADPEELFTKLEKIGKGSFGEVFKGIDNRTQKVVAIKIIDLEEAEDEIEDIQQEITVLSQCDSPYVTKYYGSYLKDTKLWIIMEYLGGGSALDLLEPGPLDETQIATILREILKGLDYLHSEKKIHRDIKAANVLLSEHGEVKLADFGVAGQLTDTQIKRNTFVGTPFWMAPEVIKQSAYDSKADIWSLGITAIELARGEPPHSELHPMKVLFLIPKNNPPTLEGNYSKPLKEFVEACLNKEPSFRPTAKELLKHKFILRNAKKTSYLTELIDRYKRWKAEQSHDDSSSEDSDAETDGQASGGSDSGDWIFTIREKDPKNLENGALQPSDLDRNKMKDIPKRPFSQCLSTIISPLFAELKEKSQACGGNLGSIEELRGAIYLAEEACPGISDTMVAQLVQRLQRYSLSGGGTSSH
Method in brief: as §1

NEK3 = biological target: T23, NEK3 (Homo sapiens, UniProt P51956); conditions: 1 µM i-CDK9; read-out: % Retention on Solid Support
T23 construct: purchased DiscoveRx KINOMEscan
Method in brief: as §1

PIK3CA(Q546K) = biological target: T24, PIK3CA(Q546K) (Homo sapiens, UniProt P42336, Q546K); conditions: read-out: % Retention on Solid Support
T24 construct: purchased DiscoveRx KINOMEscan
Method in brief: as §1

PRKD2 = biological target: T25, PRKD2 (Homo sapiens, UniProt Q9BZL6); conditions: read-out: % Retention on Solid Support
T25 construct: purchased DiscoveRx KINOMEscan
T25 sequence (Q9BZL6 whole entry): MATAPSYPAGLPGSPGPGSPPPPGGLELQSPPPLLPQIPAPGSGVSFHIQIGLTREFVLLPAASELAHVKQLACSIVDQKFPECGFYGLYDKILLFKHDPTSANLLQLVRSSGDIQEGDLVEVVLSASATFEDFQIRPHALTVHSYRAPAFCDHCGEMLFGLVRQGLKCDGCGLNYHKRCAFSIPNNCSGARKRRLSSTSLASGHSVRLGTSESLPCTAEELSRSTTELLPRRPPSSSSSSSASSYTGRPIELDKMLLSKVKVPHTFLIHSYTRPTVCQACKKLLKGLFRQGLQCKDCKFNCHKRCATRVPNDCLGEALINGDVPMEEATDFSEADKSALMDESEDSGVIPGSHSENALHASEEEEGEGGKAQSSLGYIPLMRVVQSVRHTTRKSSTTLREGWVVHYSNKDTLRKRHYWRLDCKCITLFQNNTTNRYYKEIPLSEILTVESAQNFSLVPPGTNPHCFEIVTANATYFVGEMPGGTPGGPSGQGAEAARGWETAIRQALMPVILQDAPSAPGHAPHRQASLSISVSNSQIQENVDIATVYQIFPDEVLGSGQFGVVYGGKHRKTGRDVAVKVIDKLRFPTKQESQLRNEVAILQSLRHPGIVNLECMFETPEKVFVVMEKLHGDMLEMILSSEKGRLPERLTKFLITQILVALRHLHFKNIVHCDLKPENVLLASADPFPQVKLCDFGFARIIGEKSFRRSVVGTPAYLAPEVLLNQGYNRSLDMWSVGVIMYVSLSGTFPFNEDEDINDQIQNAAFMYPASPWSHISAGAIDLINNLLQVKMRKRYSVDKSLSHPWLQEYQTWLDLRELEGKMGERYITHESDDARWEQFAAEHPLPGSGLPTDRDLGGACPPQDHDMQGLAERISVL
Method in brief: as §1

PRP4 = biological target: T26, PRP4 (Homo sapiens, UniProt Q13523); conditions: read-out: % Retention on Solid Support
T26 construct: purchased DiscoveRx KINOMEscan
Method in brief: as §1

RET(V804L) = biological target: T27, RET(V804L) (Homo sapiens, UniProt P07949, V804L); conditions: read-out: % Retention on Solid Support
T27 construct: purchased DiscoveRx KINOMEscan
Method in brief: as §1

[2] = biological target: T28, RSK1(Kin.Dom.1-N-terminal) (Homo sapiens, UniProt Q15418); conditions: read-out: % Retention on Solid Support
T28 construct: RSK1(Kin.Dom.1-N-terminal); purchased DiscoveRx KINOMEscan
Method in brief: as §1

p38-alpha = biological target: T29, p38-alpha (Homo sapiens, UniProt Q16539)
T29 construct: purchased DiscoveRx KINOMEscan
Method in brief: as §1

p38-beta = biological target: T30, p38-beta (Homo sapiens, UniProt Q15759); conditions: read-out: % Retention on Solid Support
T30 construct: purchased DiscoveRx KINOMEscan
Method in brief: as §1

N[C@H]1CC[C@H](Nc2cc(-c3cccc(NCc4cccc(F)c4)n3)c(Cl)cn2)CC1 [i-CDK9, N2′-(trans-4-aminocyclohexyl)-5′-chloro-N6-(3-fluorobenzyl)-2,4′-bipyridine-2′,6-diamine]
remaining binding at 1 µM ([1]; 1 µM i-CDK9): 55%
remaining binding at 10 µM ([1]; 10 µM i-CDK9): 91%
remaining binding at 1 µM (AKT2; 1 µM i-CDK9): 89%
remaining binding at 10 µM (AKT2; 10 µM i-CDK9): 77%
remaining binding at 1 µM (ANKK1; 1 µM i-CDK9): 100%
remaining binding at 10 µM (ANKK1; 10 µM i-CDK9): 100%
remaining binding at 1 µM (AXL; 1 µM i-CDK9): 89%
remaining binding at 10 µM (AXL; 10 µM i-CDK9): 80%
remaining binding at 1 µM (CAMK2G; 1 µM i-CDK9): 100%
remaining binding at 10 µM (CAMK2G; 10 µM i-CDK9): 100%
remaining binding at 1 µM (CAMKK2; 1 µM i-CDK9): 73%
remaining binding at 10 µM (CAMKK2; 10 µM i-CDK9): 100%
% Retention on Solid Support (CDK2; 1 µM i-CDK9): 85%
% Retention on Solid Support (CDK2; 10 µM i-CDK9): 19%
remaining binding at 1 µM (CDK4-cyclinD1): 100%
remaining binding at 1 µM (CHEK2; 1 µM i-CDK9): 98%
remaining binding at 10 µM (CHEK2; 10 µM i-CDK9): 100%
remaining binding at 1 µM (CSNK1A1): 69%
remaining binding at 1 µM (CSNK1A1L; 1 µM i-CDK9): 97%
remaining binding at 10 µM (CSNK1A1L; 10 µM i-CDK9): 100%
% Retention on Solid Support (CSNK1G1; 1 µM i-CDK9): 81%
% Retention on Solid Support (CSNK1G1; 10 µM i-CDK9): 93%
% Retention on Solid Support (DCAMKL1; 1 µM i-CDK9): 100%
% Retention on Solid Support (DCAMKL1; 10 µM i-CDK9): 100%
remaining binding at 1 µM (EIF2AK1): 85%
remaining binding at 1 µM (FGFR3; 1 µM i-CDK9): 100%
remaining binding at 10 µM (FGFR3; 10 µM i-CDK9): 95%
remaining binding at 1 µM (GRK7; 1 µM i-CDK9): 100%
remaining binding at 10 µM (GRK7; 10 µM i-CDK9): 84%
remaining binding at 1 µM (GSK3B; 1 µM i-CDK9): 79%
remaining binding at 10 µM (GSK3B; 10 µM i-CDK9): 74%
remaining binding at 1 µM (INSR; 1 µM i-CDK9): 100%
remaining binding at 10 µM (INSR; 10 µM i-CDK9): 81%
remaining binding at 1 µM (LATS1; 1 µM i-CDK9): 100%
remaining binding at 10 µM (LATS1; 10 µM i-CDK9): 100%
remaining binding at 1 µM (LIMK1; 1 µM i-CDK9): 90%
remaining binding at 10 µM (LIMK1; 10 µM i-CDK9): 100%
% Retention on Solid Support (MLK3; 1 µM i-CDK9): 85%
% Retention on Solid Support (MLK3; 10 µM i-CDK9): 100%
% Retention on Solid Support (MST3; 1 µM i-CDK9): 83%
% Retention on Solid Support (MST3; 10 µM i-CDK9): 90%
remaining binding at 1 µM (NEK3): 100%
remaining binding at 1 µM (PIK3CA(Q546K); 1 µM i-CDK9): 73%
remaining binding at 10 µM (PIK3CA(Q546K); 10 µM i-CDK9): 100%
remaining binding at 1 µM (PRKD2; 1 µM i-CDK9): 88%
remaining binding at 10 µM (PRKD2; 10 µM i-CDK9): 47%
remaining binding at 1 µM (PRP4; 1 µM i-CDK9): 14%
remaining binding at 10 µM (PRP4; 10 µM i-CDK9): 100%
remaining binding at 1 µM (RET(V804L); 1 µM i-CDK9): 100%
remaining binding at 10 µM (RET(V804L); 10 µM i-CDK9): 79%
remaining binding at 1 µM ([2]; 1 µM i-CDK9): 100%
remaining binding at 10 µM ([2]; 10 µM i-CDK9): 82%
% Retention on Solid Support (p38-alpha; 1 µM i-CDK9): 85%
% Retention on Solid Support (p38-alpha; 10 µM i-CDK9): 100%
remaining binding at 1 µM (p38-beta; 1 µM i-CDK9): 66%
remaining binding at 10 µM (p38-beta; 10 µM i-CDK9): 100%
